{"source": "patent US20120184517A1", "about": "“TREATMENT OF DISEASES WITH ALTERED SMOOTH MUSCLE CONTRACTILITY” (priority 2009, published 2012)", "key": {"[1]": {"conditions": "cited from earlier work"}, "[2]": {"system": "membrane potential of tracheal smooth muscle cells", "test": "Membrane potential measurement in tracheal smooth muscle cells", "format": "cell-based, mice", "procedure": "(§1) In this experiment, murine tracheal smooth muscle cells were acutely isolated and whole cell patch clamped as previously described (Zakharov, S. et al., (2005) J Biol Chem 280, 30882-30887).\nThe membrane potential was recorded using perforated patch clamp technique."}, "PKCδ": {"target": "PKCδ (Homo sapiens, UniProt Q05655)", "sequence (Q05655 whole entry)": "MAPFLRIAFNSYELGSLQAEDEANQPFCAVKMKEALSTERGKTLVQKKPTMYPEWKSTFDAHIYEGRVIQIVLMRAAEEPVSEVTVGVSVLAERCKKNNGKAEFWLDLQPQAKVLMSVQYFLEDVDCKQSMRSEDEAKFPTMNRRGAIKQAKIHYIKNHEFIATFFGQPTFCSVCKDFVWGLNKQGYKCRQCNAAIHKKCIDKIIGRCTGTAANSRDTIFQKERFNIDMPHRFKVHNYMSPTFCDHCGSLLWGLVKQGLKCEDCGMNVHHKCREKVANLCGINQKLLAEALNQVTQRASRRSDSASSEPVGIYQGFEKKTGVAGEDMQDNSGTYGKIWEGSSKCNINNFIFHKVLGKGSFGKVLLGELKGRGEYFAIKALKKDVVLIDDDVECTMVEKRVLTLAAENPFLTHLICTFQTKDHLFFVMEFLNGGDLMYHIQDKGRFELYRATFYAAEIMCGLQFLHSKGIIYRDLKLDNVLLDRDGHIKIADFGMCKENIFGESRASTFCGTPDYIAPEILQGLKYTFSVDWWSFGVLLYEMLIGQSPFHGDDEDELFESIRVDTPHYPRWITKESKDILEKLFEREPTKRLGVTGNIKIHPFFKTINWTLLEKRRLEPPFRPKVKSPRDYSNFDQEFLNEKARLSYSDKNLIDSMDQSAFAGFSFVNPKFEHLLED", "conditions": "rottlerin 20 μM, 0.1 mM ATP, phosphatidylserine; cited from earlier work"}, "other PKC isozymes": {"system": "other PKC isozymes", "conditions": "cited from earlier work"}, "tracheal rings": {"system": "tracheal rings", "test": "Isoproterenol-induced relaxation of tracheal rings from PBS- and OVA-sensitized animals", "format": "cell-based, murine", "set-up": "isoproterenol-induced relaxation: dose or concentration left out as unconfirmed", "procedure": "The isoproterenol-induced relaxation of tracheal rings from OVA-sensitized asthmatic animals was also tested. After induction of asthma, tracheal rings were removed and mounted on the myograph. […] At the conclusion of the experiment, each tracheal ring was exposed to methacholine to ensure viability of the ring and equivalent constriction.\nAfter induction of asthma, tracheal rings were removed and mounted on the myograph. […] The ISO-relaxation curve was shifted downward and to the right, with the maximal relaxation response reduced to only ˜25% from more than 60%."}, "casein kinase II": {"target": "casein kinase II (Homo sapiens, UniProt P68400)", "sequence (P68400 whole entry)": "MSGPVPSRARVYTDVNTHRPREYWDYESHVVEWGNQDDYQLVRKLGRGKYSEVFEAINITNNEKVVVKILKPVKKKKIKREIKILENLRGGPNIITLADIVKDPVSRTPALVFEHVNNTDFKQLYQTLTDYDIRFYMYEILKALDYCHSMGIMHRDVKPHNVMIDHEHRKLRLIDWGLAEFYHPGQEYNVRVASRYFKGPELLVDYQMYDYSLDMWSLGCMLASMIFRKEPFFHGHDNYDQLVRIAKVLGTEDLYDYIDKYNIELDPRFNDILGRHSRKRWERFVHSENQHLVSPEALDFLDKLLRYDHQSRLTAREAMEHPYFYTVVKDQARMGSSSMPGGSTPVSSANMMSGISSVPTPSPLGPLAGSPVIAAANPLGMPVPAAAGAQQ", "conditions": "cited from earlier work"}, "BKCa channel (mSlo)": {"target": "T1, BKCa channel (mSlo) (Mus musculus, UniProt Q08460)", "T1 construct": "expressed in transfected cells", "T1 sequence (Q08460 whole entry)": "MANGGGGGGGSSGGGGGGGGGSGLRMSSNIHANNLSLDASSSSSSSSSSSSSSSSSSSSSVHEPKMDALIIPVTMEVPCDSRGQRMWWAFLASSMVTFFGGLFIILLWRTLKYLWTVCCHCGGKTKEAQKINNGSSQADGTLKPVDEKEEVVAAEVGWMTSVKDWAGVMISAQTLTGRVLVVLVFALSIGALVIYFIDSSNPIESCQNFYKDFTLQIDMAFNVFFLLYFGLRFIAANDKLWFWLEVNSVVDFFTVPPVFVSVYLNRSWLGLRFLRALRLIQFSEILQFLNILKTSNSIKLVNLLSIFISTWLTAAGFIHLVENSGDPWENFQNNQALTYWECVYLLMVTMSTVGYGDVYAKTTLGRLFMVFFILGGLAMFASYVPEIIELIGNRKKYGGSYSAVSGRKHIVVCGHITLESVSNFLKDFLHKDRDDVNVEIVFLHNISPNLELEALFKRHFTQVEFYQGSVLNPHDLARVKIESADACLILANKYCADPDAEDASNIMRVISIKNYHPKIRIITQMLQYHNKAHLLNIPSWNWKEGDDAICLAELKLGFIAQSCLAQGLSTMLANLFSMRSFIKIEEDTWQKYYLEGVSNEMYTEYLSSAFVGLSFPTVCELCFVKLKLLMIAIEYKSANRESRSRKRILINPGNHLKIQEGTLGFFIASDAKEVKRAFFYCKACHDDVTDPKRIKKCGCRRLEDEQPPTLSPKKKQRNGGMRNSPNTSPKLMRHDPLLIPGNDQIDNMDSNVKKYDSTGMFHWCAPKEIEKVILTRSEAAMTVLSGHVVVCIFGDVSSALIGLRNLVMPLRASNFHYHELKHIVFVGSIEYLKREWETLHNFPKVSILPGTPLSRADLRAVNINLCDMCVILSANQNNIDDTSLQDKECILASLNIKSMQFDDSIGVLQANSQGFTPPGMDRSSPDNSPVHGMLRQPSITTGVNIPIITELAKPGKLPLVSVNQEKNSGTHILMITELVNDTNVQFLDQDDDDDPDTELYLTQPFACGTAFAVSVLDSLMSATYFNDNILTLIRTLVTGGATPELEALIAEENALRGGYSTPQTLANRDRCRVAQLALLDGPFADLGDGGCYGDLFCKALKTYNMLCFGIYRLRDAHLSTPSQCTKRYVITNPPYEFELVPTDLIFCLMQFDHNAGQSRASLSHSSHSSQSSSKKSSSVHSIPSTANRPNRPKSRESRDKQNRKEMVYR", "test": "Whole cell patch clamp of HEK293 cells stably transfected with mSlo", "format": "cell-based, murine", "procedure": "FIGS. 4A and 4B show representative current traces from whole cell patches with 5 mM EGTA in patch pipette. […] Voltage steps are shown at the right of each tracing; note the different maximum voltage steps +200 mV (upper) vs. +120 mV (lower). […] FIG. 4C G-V curves were constructed for indicated conditions utilizing tail analysis (Xia, et al., Multiple regulatory sites in large-conductance calcium-activated potassium channels. Nature, 2002. 418(6900):880-4). Solid lines were fitted with Boltzmann function. […] FIGS. 4D and 4E show experiments studying stable mslo HEK293 cells in whole cell configuration with a pipette solution containing 5 mM EGTA (˜0 free Ca^2+).\nCurrent in the diary plot in FIG. 5B represents maximal current in ramp protocol at +70 mV. Holding potential of ramp was −20 mV, with ramp from −30 mV to +180 mV over 500 ms. The G-V curve in FIG. 5C was generated from the tail analysis as described in FIG. 4.\nCurrent was monitored with a ramp protocol; holding potential −60 mV, with ramp from −80 mV to +150 mV over 500 ms. […] Analysis was performed using tail analysis with normalization as previously described (Xia, et al., Multiple regulatory sites in large-conductance calcium-activated potassium channels. Nature, 2002. 418(6900):880-4). […] Identification of the BKCa channel was determined by conductance and inhibition by iberiotoxin and TEA. […] Murine femoral arterial rings were isolated and placed in a wire myograph. […] The figures shown are representative of 4 similar experiments. Error bars are standard error of the mean (SEM). Asterisk (*) indicates p<0.001."}, "HDM-exposed mice": {"system": "HDM-exposed mice", "test": "House dust mite (HDM) sensitized asthma model", "procedure": "House dust mite (HDM) is one of the most common aeroallergens and is implicated in allergy and asthma symptoms in ˜10% of the population (Johnson et al., “Continuous exposure to house dust mite elicits chronic airway inflammation and structural remodeling.” Am J Respir Crit Care Med 169:378-385 (2004)). Exposure to HDM extract elicits a severe and persistent eosinophilic airway inflammation. Mice were exposed to purified HDM extract (Greer Laboratories, Lenoir, N.C.) intranasally (25 μg of protein in 10 μl saline) for 5 days/week for 3 weeks as previously described (Id.). […] Changes in pressure, flow, and volume were recorded, and airway resistance was calculated from peak values after each challenge using a Buxco forced maneuvers system and restrained whole body plethysmography (rWBP; PLY3011 chamber, Buxco (BUXCO Electronics Inc., Troy, N.Y.))."}, "guinea pigs": {"system": "guinea pigs", "conditions": "10-20 mg/kg/day×6 days; cited from earlier work"}, "WT tracheal rings": {"system": "WT tracheal rings", "test": "Isoproterenol-induced relaxation of WT tracheal rings on a myograph", "format": "cell-based, murine", "conditions": "rottlerin compared to PBS", "procedure": "(n=4 each). Asterisk (*) indicates P<0.05 versus vehicle (DMSO). […] Cumulative dose-response curves of WT tracheal rings to isoproterenol in the absence and presence of 100 nM iberiotoxin (IbTX), a specific BK channel inhibitor. Values in graphs are means±standard deviation.\nas §1\nTo dissect which (or both) β-AR pathways are responsible for the effects, tracheal rings were pre-incubated with either β1-AR antagonist (CGP 20712A; 100 nM) or a β2-AR antagonist (ICI 118551; 100 nM) or vehicle (DMSO). […] To confirm that the isoproterenol-induced relaxation was dependent upon BK channel-induced hyperpolarization, IbTX, a specific inhibitor of the BK channel, was used."}, "protein kinase A (PKA)": {"target": "protein kinase A (PKA) (Homo sapiens, UniProt P17612)", "conditions": "cited from earlier work"}}, "note": "“Also recorded” adds a separate entry of the source.", "data": [{"compound": "CC(=O)c1c(O)c(C)c(O)c(Cc2c(O)c3c(c(C(=O)/C=C/c4ccccc4)c2O)OC(C)(C)C=C3)c1O", "note": "[rottlerin, 5,7-dihydroxy-2,2-dimethyl-6-(2,4,6-trihydroxy-3-methyl-5-acetylbenzyl)-8-cinnamoyl-I,2-chromene]", "values": [{"measurement": "solubility in DMSO", "setting": "[1]; DMSO", "result": 100, "unit": "mM"}, {"measurement": "solubility in ethanol", "setting": "[1]; ethanol", "result": 2, "unit": "mM"}, {"measurement": "membrane potential", "setting": "[2]; after rottlerin application (1 μM), FIGS. 11B and 11D", "result": "significant hyperpolarization"}, {"measurement": "membrane potential", "setting": "[2]; perforated patch clamp, rottlerin 2 μM, FIG. 15", "result": "significant hyperpolarization"}, {"measurement": "effect on PKCδ activity", "setting": "PKCδ", "result": "virtually no effect"}, {"measurement": "IC50", "setting": "other PKC isozymes", "result": "30 to 100", "unit": "µM"}, {"measurement": "maximal relaxation response to isoproterenol", "setting": "tracheal rings; OVA-sensitized rings, acute rottlerin in the bath 2 minutes prior to ISO", "result": "~45", "unit": "%"}, {"measurement": "isoproterenol-induced relaxation", "setting": "tracheal rings; PBS-treated (control) animals", "result": "enhanced the isoproterenol-induced relaxation"}, {"measurement": "IC50", "setting": "casein kinase II", "result": "30 to 100", "unit": "µM"}, {"measurement": "tail currents (deactivation)", "setting": "BKCa channel (mSlo); after exposure to rottlerin", "result": "markedly prolonged"}, {"measurement": "concentration at which channel activity was dramatically increased", "setting": "BKCa channel (mSlo); extracellular, non-Ca2+ dependent, reversible", "result": "< 100", "unit": "nM"}, {"measurement": "current after NS-1619 administration", "setting": "BKCa channel (mSlo); rottlerin 0.5 μM added after NS-1619, 0 Ca2+", "result": "incrementally increased current"}, {"measurement": "effect of intracellular dialysis on channel activity", "setting": "BKCa channel (mSlo); up to 20 μM in patch pipette, 25 minutes", "result": "only a relatively small effect; also recorded: minimal effect"}, {"measurement": "adverse effect, mortality, morbidity", "setting": "HDM-exposed mice; 5 μg/g intraperitoneal every other day", "result": "no significant adverse effect"}, {"measurement": "cellular infiltrate in the peribronchial and perivascular regions", "setting": "HDM-exposed mice; HDM-exposed animals", "result": "significant reduction"}, {"measurement": "airway resistance", "setting": "HDM-exposed mice; HDM-sensitized mice, methacholine 25-50 mg/ml", "result": "marked decrease in their airway resistance"}, {"measurement": "airway resistance", "setting": "HDM-exposed mice; PBS-sensitized animals", "result": "no effect"}, {"measurement": "fertility rate", "setting": "guinea pigs", "result": "reduce the fertility rate"}, {"measurement": "ISO-induced relaxation", "setting": "WT tracheal rings", "result": "enhanced the ISO-induced relaxation"}, {"measurement": "IC50", "setting": "protein kinase A (PKA)", "result": "30 to 100", "unit": "µM"}]}]}
